The target of assay [1] is extrinsic activation complex (factor VIIa:tissue factor) (Homo sapiens, UniProt P08709+P13726). In words: Rate of Factor Xa formation by the extrinsic activation complex, kinetic chromogenic assay. Type of assay: biochemical. As to conditions: for Factor Xa Formation (% of Control Rate) Extrinsic: 1 mg/ml (0.29-1.1 mM) peptide, 30 min at 37 degrees preincubation.
In assay [2] the target is T1, intrinsic activation complex (factor IXa:factor VIIIa) (Homo sapiens, UniProt P00451+P00740).
T1 construct: Factor IXa was produced from contact product (14) and isolated as previously described (12); made in house; host or cells: Factor IXa produced from isolated Factor IX with contact product; Factor VIII was a gift from Rorer Biotechnology, Inc
The experiment in a line: Rate of Factor Xa formation by the intrinsic activation complex, kinetic chromogenic assay. Particulars: for Factor Xa Formation (% of Control Rate) Intrinsic: 1 mg/ml (0.29-1.1 mM) peptide, 30 min at 37 degrees preincubation. It is filed as biochemical.

Assay [3] addresses RVV-X (Daboia siamensis, UniProt Q4PRD1+Q4PRD2+Q7LZ61). In words: biochemical. Also noted: species or system Russell's viper.
Assay [4] concerns the target T2, Factor Xa:Factor Va complex (Homo sapiens, UniProt P12259).
T2 sequence (P12259 29-737 limits assumed): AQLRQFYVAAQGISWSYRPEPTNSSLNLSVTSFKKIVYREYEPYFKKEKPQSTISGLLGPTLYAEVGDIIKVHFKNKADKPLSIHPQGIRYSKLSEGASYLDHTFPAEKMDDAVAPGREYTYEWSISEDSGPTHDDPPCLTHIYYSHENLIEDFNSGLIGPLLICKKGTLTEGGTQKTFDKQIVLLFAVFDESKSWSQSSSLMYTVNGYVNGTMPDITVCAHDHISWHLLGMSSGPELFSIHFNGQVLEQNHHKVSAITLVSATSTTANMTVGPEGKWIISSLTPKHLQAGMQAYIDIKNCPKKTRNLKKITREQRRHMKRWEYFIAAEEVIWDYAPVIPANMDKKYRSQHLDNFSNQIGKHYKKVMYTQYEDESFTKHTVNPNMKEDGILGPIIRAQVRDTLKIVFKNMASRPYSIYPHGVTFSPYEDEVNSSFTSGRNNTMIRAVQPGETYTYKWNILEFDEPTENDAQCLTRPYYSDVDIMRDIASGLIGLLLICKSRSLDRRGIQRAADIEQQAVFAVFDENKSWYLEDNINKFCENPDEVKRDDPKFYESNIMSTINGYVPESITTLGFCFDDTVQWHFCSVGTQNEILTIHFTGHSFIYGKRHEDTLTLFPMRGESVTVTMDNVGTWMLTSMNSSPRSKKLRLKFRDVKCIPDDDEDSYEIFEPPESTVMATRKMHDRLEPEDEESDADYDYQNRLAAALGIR
T2 sequence (P12259 1574-2224 limits assumed): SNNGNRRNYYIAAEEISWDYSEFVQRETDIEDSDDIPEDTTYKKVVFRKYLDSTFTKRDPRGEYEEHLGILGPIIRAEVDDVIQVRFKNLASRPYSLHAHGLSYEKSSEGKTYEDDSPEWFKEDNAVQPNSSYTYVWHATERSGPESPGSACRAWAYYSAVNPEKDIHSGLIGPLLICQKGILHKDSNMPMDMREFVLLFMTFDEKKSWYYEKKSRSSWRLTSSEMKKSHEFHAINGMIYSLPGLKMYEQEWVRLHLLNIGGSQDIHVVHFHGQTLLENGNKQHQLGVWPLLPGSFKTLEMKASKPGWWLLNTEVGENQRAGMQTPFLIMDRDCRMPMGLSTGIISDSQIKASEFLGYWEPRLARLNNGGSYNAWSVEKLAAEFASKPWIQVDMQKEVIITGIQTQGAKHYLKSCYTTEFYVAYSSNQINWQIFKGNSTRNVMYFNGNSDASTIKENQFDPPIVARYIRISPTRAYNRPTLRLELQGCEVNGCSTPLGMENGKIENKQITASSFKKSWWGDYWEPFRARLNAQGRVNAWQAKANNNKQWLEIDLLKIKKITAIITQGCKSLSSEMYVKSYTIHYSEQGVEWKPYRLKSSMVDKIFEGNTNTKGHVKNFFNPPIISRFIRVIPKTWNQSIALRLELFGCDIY
The experiment in a line: Rate of thrombin formation (prothrombin activation by Factor Xa), chromogenic assay. Type of assay: biochemical. As to conditions: for Thrombin Formation (% of Control Rate): 200 μM final concentration of peptide. Here is the method: b. Rate of Thrombin Formation: The ability of the synthetic peptides to inhibit Factor Xa function was assessed by their capacity to impede the rate of thrombin formation using a purified system and employing a specific thrombin chromogenic substrate. To 10 ul of Factor V (1.5 nM) was added 10 ul of phospholipid vesicles (30 uM), 3.3 ul of CaCl2 (100 mM) and 57 ul of TBS-BSA or synthetic peptide. The mixture was incubated at 37 degrees Centigrade for 15 minutes, after which 20 ul of Factor Xa (12 pM) and prothrombin (0.35 uM) were added to initiate the reaction.
At defined time intervals from initiation of either reaction (a) or (b), 20 ul aliquots were removed and added to a microtiter plate containing 80 ul of 50 mM Tris-HCl, 225 mM NaCl, 10 mM EDTA, pH 8.2. […] The rate of Factor Xa or thrombin formation was calculated from the slope of linear regressions of data plotted as a function of the initial rate of hydrolysis (OD 405/min) versus time and expressed as OD 405/min/min.
Factor Xa associates with activated Factor Va on a phospholipid surface in the presence of calcium. A chromogenic assay was used to investigate the ability of the panel of synthetic peptides to inhibit the activation of prothrombin by Factor Xa. In preliminary experiments it was determined that similar results were obtained whether prothrombin was added before or after factor Xa and that the 15 minute incubation period was sufficient for the peptide-protein interactions to reach equilibrium. […] Seven peptides prevented thrombin formation by greater than 40% when compared to reactions containing buffer only. These peptides represented the amino acid sequences 211-222, 237-262, 254-269, 267-283, 284-303, 363-375, 417-431. Thus, a limited number of synthetic peptides representing the primary structure of Factor Xa could inhibit this reaction and these were analyzed further.

The subject of assay [5] is Factor X coagulant activity, RVV-X pathway. In words: Two-stage clotting assay, RVV-X mediated activation of Factor X. Also on record: species or system human.
Assay [6] deals with Factor X coagulant activity, extrinsic pathway. The experiment in a line: Two-stage clotting assay, extrinsic activation of Factor X.
Method: (§1) Coagulation Assays: The effect of the synthetic peptide and antibodies to them on Factor X coagulation activity was determined using two-stage clotting assays specific for Factor X activation by the intrinsic, extrinsic, and RVV-X activation enzyme complexes.
(§2) For determination of extrinsic activation of Factor X, 50 ul of bovine Factor VII/X deficient plasma was added 50 ul each of 1.5 nM Factor VII/VIIa, 1% tissue factor, 25 mM CaCl2, and peptide in TBS-BSA. Following incubation for 30 min at 37 degrees Centigrade, coagulation was initiated by the addition of 50 ul of 200 nM of Factor X, and the time for clot formation was measured. […] Factor X (50 ul of 105 nM) was added to initiate the reaction and the time for clot formation measured. […] Factor X and Xa activity was measured by the addition of 50 ul of 25 nM Factor X and the time for clot formation determined. […]
(§3) Analogous determinations of the CI50 values were measured in each of the specific coagulation assays outlined above. Factor X/Xa activity in the presence of varying concentrations of peptide was measured by comparing the clotting times to a standard curve constructed from the log of the clot time versus the log of Factor X concentration in the same incubation mixtures lacking peptides. […]
For assay [7], the system named is Factor X coagulant activity, intrinsic pathway. In words: Two-stage clotting assay, intrinsic activation of Factor X.
Method: as §1, §2, §3
The mark [8] stands for this setting: 267-283 at 6 uM, 284-303 at 60 uM, 417-431 at 600 uM, alone or mixed.

“And” between values parts separate entries of the source, which are not always exact repeats. Identical values can stand only once. Where a SMILES comes first, the peptide text is derived from it. Where no end group is shown, it is not given here.

T1 sequence (P00740 47-191 limits assumed): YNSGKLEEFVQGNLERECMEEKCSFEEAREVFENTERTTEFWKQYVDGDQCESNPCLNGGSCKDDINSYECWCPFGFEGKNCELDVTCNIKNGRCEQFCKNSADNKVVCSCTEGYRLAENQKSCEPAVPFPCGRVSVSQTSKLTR
T1 sequence (P00740 227-461 limits assumed): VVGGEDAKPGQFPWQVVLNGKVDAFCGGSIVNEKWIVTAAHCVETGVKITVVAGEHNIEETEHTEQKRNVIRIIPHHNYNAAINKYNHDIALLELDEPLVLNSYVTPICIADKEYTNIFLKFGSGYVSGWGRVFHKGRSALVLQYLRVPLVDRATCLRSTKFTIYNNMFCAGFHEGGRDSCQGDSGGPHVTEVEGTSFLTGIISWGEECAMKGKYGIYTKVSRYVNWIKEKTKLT
T1 sequence (P00451 20-391 limits assumed): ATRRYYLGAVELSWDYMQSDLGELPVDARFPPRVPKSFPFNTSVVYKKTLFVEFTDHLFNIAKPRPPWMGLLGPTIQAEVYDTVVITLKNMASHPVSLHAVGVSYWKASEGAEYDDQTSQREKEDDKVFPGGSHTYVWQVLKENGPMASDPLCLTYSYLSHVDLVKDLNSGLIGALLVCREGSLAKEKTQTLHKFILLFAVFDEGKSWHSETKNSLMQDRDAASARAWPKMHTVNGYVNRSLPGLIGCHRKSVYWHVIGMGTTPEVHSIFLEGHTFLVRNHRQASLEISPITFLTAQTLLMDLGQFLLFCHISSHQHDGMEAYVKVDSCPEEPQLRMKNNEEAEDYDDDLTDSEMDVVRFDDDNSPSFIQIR
T1 sequence (P00451 392-759 limits assumed): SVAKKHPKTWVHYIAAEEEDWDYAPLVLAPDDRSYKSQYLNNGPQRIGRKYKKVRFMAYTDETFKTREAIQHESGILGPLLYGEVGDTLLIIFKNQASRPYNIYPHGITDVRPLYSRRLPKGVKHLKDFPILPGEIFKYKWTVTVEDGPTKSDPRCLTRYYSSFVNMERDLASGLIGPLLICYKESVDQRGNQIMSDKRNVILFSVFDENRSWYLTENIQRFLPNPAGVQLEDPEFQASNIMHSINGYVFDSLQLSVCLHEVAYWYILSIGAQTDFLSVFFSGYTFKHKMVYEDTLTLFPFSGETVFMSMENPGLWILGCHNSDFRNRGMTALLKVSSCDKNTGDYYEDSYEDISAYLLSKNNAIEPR
T1 sequence (P00451 1709-2351 limits assumed): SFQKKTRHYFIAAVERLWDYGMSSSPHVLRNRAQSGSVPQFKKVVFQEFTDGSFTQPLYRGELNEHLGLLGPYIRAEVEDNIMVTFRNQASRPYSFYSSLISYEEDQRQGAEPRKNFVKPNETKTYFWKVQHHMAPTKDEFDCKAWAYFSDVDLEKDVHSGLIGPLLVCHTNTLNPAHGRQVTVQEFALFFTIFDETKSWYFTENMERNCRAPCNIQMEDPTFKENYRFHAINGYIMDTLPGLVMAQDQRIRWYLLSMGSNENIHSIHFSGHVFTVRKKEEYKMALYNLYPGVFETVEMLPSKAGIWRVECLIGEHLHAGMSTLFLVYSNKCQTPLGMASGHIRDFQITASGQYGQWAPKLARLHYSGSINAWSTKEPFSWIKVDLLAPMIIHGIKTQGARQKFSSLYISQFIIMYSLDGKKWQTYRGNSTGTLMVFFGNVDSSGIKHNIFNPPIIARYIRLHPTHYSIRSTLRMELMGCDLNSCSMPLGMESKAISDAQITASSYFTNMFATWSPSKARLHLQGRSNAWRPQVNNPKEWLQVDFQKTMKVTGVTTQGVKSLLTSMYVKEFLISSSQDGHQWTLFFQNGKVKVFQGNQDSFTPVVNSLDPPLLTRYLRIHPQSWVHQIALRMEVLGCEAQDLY
Sequence of extrinsic activation complex (factor VIIa:tissue factor) (P08709 61-212 limits assumed): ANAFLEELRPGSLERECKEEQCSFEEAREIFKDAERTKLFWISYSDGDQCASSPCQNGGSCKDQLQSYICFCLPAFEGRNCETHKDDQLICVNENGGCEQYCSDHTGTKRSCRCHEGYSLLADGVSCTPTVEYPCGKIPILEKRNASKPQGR
Sequence of extrinsic activation complex (factor VIIa:tissue factor) (P08709 213-466 limits assumed): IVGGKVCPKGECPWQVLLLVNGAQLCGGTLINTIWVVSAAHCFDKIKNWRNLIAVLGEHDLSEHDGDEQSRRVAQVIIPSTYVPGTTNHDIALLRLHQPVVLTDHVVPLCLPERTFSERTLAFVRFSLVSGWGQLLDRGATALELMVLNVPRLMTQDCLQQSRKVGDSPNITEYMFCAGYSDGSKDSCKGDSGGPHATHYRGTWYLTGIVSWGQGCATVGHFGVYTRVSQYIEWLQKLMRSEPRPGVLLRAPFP
Sequence of extrinsic activation complex (factor VIIa:tissue factor) (P13726 33-295): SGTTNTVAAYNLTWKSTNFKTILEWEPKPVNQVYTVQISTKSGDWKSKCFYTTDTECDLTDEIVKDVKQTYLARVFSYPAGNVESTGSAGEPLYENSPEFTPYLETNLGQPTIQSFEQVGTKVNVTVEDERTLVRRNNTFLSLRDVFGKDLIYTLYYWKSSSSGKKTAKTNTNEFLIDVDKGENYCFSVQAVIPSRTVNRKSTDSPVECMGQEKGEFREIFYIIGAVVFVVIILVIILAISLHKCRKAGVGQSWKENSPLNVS

With “IVGGQECKDGECPWQA(K) (C-terminal added Lys) [Peptide 195-210 + K]”, the “Factor Xa Formation (% of Control Rate) Extrinsic” value in assay [1] is listed as 88 % of Control Rate. In addition, the “Factor Xa Formation (% of Control Rate) Intrinsic” value in assay [2] is reported as 98 % of Control Rate. For the same molecule, the “Factor Xa Formation (% of Control Rate) RVVX” value in assay [3] stood at 76. Moreover, the “Thrombin Formation (% of Control Rate)” value in assay [4] is listed as 99 % of Control Rate.

As a reminder, the Ki is the equilibrium dissociation constant of an inhibitor or competing ligand from its target. For AVLRLKTPITFRMNVAPACL [Peptide 284-303], the “Factor Xa Formation (% of Control Rate) Extrinsic” value in assay [1] was 19 % of Control Rate. Further, in assay [1] (setting [8]), the “Factor X Activation (% Control) Experiment #1 Observed” value turned out to be 35.0 % Control. In assay [1] (setting [8]), the “Factor X Activation (% Control) Experiment #2 Observed” value is on record as 47.8 % Control. Further, the Ki came to 73.6 ± 7.79 µM in assay [1] (Dixon plots, mean ± SD for 4 to 5 determinations, read-out: Ki for Factor X Activation, Extrinsic); 3.05 ± 1.77 µM in assay [2] (Dixon plots, mean ± SD for 4 to 5 determinations, read-out: Ki for Factor X Activation, Intrinsic); 123 ± 23.9 µM in assay [3] (read-out: Ki for Factor X Activation, RVV-X); 16.2 ± 4.54 µM in assay [4] (assays varying the substrate prothrombin, read-out: Ki for Factor Xa Function). Besides, the IC50 in assay [1] (chromogenic assay, read-out: Concentration for 50% Inhibition, Rate of Factor Xa Formation, Extrinsic) is 78 µM; in assay [2] (chromogenic assay, read-out: Concentration for 50% Inhibition, Rate of Factor Xa Formation, Intrinsic), 1.7 µM and < 5 µM; in assay [3] (read-out: Concentration for 50% Inhibition, Rate of Factor Xa Formation, RVV.X), 104 µM; in assay [5] (clotting assay, read-out: Concentration for 50% Inhibition, Coagulant Activity, RVV.X), 14 µM; in assay [6] (read-out: Concentration for 50% Inhibition, Coagulant Activity, Extrinsic, clotting assay), greater than 500 µM; in assay [7] (read-out: Concentration for 50% Inhibition, Coagulant Activity, Intrinsic, clotting assay), 46 µM. The “Factor Xa Formation (% of Control Rate) Intrinsic” value in assay [2] was 0 % of Control Rate. In addition, the “Factor Xa Formation (% of Control Rate) RVVX” value in assay [3] was 34. In addition, the “Thrombin Formation (% of Control Rate)” value in assay [4] was 0 % of Control Rate. Further, the “prevention of thrombin formation compared to buffer only” value in assay [4] (200 uM of each peptide) was “greater than 40%”. For the same molecule, the “inhibition of RVV-X pathway Factor X coagulant activity” value in assay [5] (clot formation assay) is on record as “inhibited”. In assay [6] (clot formation assay), the “inhibition of extrinsic pathway-mediated Factor X coagulant activity” value is “less potent inhibitor”. The “inhibition of intrinsic pathway Factor X coagulant activity” value in assay [7] (clot formation assay) is recorded as “inhibited”.

With “LYQAKRF *EGDRNTEQEEGG(K) [Peptide 238-259 + K]”, the “Factor Xa Formation (% of Control Rate) Extrinsic” value in assay [1] was 100 % of Control Rate. The “Factor Xa Formation (% of Control Rate) Intrinsic” value in assay [2] is given as 71 % of Control Rate. In assay [3], the “Factor Xa Formation (% of Control Rate) RVVX” value came out at 100. Also, the “Thrombin Formation (% of Control Rate)” value in assay [4] was 98 % of Control Rate.

Regarding `C[C@H](NC(=O)[C@H](CC(=O)O)NC(=O)[C@H](CCC(=O)O)NC(=O)[C@H](CCC(N)=O)NC(=O)[C@H](CCCCN)NC(=O)[C@@H](NC(=O)[C@H](CC(=O)O)NC(=O)[C@H](Cc1ccc(O)cc1)NC(=O)CNC(=O)[C@H](C)NC(=O)[C@H](CS)NC(=O)[C@@H](N)Cc1ccccc1)[C@@H](C)O)C(=O)N[C@@H](CS)C(=O)O` [Peptide 363-375] (H-FCAGYDTKQEDAC-OH; N-terminus and C-terminus assumed), the “mode of inhibition of prothrombin activation” value in assay [4] (Dixon plots, varying prothrombin) was “noncompetitive”.

As a reminder, the inhibition is the share of the control response that was lost under treatment. On to VVIKHNRFTKETYDFDI [Peptide 267-283], for which, in assay [1] (400 uM peptide, Factor X 5.25-84 nM (FIG. 1), read-out: inhibition of the rate and extent of Factor X activation by the extrinsic activation complex), the inhibition at 400 µM was no less than 90%.

CARGYTLADNGKAC [Peptide 111-124]: the “Factor Xa Formation (% of Control Rate) Extrinsic” value in assay [1] is 83 % of Control Rate. Also, the “Factor Xa Formation (% of Control Rate) Intrinsic” value in assay [2] is recorded as 121 % of Control Rate. Further, the “Factor Xa Formation (% of Control Rate) RVVX” value in assay [3] stood at 77. Also, the “Thrombin Formation (% of Control Rate)” value in assay [4] is 100 % of Control Rate.

TEQE*GGEAVHEVEVVIK [Peptide 253-270]: the “inhibition of the rate and extent of Factor X activation by the extrinsic activation complex” value in assay [1] (400 uM peptide, Factor X 5.25-84 nM (FIG. 1)) was “approximately 20%”. For the same molecule, in assay [1], the “Factor Xa Formation (% of Control Rate) Extrinsic” value was 100 % of Control Rate. In assay [3], the “Factor Xa Formation (% of Control Rate) RVVX” value was determined as 71.

The values above are taken from US5187155A, “Anticoagulant peptides” (Board of Regents, The University of Texas System, priority 1989, dated 1993).
